Reference: patent US20070026080A1, “Manufacturing process for tigecycline” (Wyeth, priority 2005, published 2007)

Test: Strength and degradation profile of tigecycline 20 mg/mL bulk solutions by reversed phase HPLC (effect of temperature, time, pH, dissolved oxygen; Runs A to O)
Type: physicochemical
Settings: 2° C.
Description: The contents of the sample vials are dissolved in diluent. The sample solution is diluted, if necessary, and chromatographed on a reversed phase column using gradient elution. Impurities are determined by comparing the impurity peak areas in the sample preparation chromatogram to the average area of tigecycline peaks in the standard preparation chromatograms obtained concomitantly.
Chromatographic Column—Length about 15 cm, inside diameter about 4.6 mm, packed with Inertsil ODS2, 5 μm size particles or equivalent.
Detector—Ultraviolet spectrophotometric detector capable of operating at 248 nm with a sensitivity of about 0.5 absorbance units full scale.
The results of additional studies to investigate the effect of processing parameters such as temperature, time, and dissolved oxygen content on the purity profile of tigecycline solutions using the following materials, methods and procedures are presented in Tables A to O.
The experiments were run in plastic glove bags under normal laboratory light conditions. Plastic glove boxes will be used to control the headspace of the beakers. The batch size was 200 mL. • 1. Prepare the glove bag with a mixture of nitrogen and air to achieve an oxygen level in the solution as per the design. • 2. Place the jacketed beaker on the magnetic stirrer. Connect it to the cooler. Set the cooler to the desired set point. • 3. Add 200 mL of SWFI in to the beaker. Allow equilibrating. Measure the temperature and oxygen content. When it reaches the desired condition, add accurately weighed API and mix until dissolved. If necessary use spatula to aid dissolution. For pH adjustments, use 4 mL of either 0.1N NaOH or 0.1N HCl and 196 mL of WFI for manufacture. • 4. After complete dissolution, Transfer about 5.5 mL of Solution in vials and stopper them. These vials will be stoppered at the appropriate headspace conditions. Place the vials in appropriate temperature conditions. • 5. Sample the vials at 1, 4, 8, 10, 12 and 24 hours. Send the samples for analysis. Freeze the 10, 12 and 24 samples at −20° C. for analysis the following day. • 6. Measure pH and record color of the solution at each time point. Results
The 1-hour samples were taken directly from the beakers. Samples for later time points were collected in stoppered vials processed in the atmosphere of the bag in order to simulate the headspace conditions then placed in water baths or refrigerator to maintain there respective temperature conditions. This was done to maintain safety in the lab. Disposable plastic glove bags require constant flow of a mixture of nitrogen and air to maintain headspace oxygen level that will result in the desired dissolved oxygen (DO) content in the sample. The pH of samples was measured at each sample points.
Strength and degradation profile was analyzed by HPLC as described above. […] Degradation was slightly higher at higher temperature condition.

[1] = Run #K, 20 mg/mL, pH 8.2, Oxygen 0.1 mg/L, hours 1,4,8,10,12,24 at r6-r11, after 24 hours
[2] = Run #L, pH 7.7, Oxygen = 0.1 mg/L, 1 Hrs
[3] = Run #L, pH 7.7, Oxygen = 0.1 mg/L, 4 Hrs
[4] = Run #L, pH 7.7, Oxygen = 0.1 mg/L, 8 Hrs
[5] = Run #L, pH 7.7, Oxygen = 0.1 mg/L, 10 Hrs
[6] = Run #L, pH 7.7, Oxygen = 0.1 mg/L, 12 Hrs

For `CN(C)c1cc(NC(=O)CNC(C)(C)C)c(O)c2c1C[C@H]1C[C@H]3[C@H](N(C)C)C(O)=C(C(N)=O)C(=O)[C@@]3(O)C(O)=C1C2=O` [Tigecycline], which “RRT 0.74 Epimer” value [1] is on record?
Its value is 0.17%.

What about the “RRT 1.45” value [1] of the same compound?
The value was 0.08%.

What about the “RRT 1.64 Mino” value [1] of the same compound?
The value was 0.14%.

And the “RRT 1.85 MW = 597” value [1]?
Its value is 0.08%.

And the Strength [1]?
Its Strength is 19.067 mg/mL.

What about the Total [1] of the same compound?
Its Total is 0.55%.

What about the “RRT 0.12 MW = 633” value [2] of the same compound?
Its value is “BRL (BRL means below reporting limit (meaning less than 0.05% of tigecycline peak))”.

And the “RRT 0.23 MW = 572” value [2]?
Its value is “BRL (BRL means below reporting limit (meaning less than 0.05% of tigecycline peak))”.

And the “RRT 0.50 MW = 601” value [2]?
Its value is “BRL (BRL means below reporting limit (meaning less than 0.05% of tigecycline peak))”.

And the “RRT 0.55 MW = 583” value [2]?
The value was “BRL (BRL means below reporting limit (meaning less than 0.05% of tigecycline peak))”.

And the “RRT 0.58” value [2]?
Its value is 0.08%.

And the “RRT 0.64 9-Amino” value [2]?
The value was “BRL (BRL means below reporting limit (meaning less than 0.05% of tigecycline peak))”.

And the “RRT 0.74 Epimer” value [2]?
Its value is 0.17%.

What about the “RRT 0.76” value [2] of the same compound?
Its value is “BRL (BRL means below reporting limit (meaning less than 0.05% of tigecycline peak))”.

What about the “RRT 0.78 MW = 557” value [2] of the same compound?
The value was “BRL (BRL means below reporting limit (meaning less than 0.05% of tigecycline peak))”.

And the “RRT 1.12” value [2]?
Its value is “BRL (BRL means below reporting limit (meaning less than 0.05% of tigecycline peak))”.

And the “RRT 1.45” value [2]?
Its value is 0.08%.

What about the “RRT 1.58” value [2] of the same compound?
The value was “BRL (BRL means below reporting limit (meaning less than 0.05% of tigecycline peak))”.

And the “RRT 1.64 Mino” value [2]?
Its value is 0.14%.

What about the “RRT 1.67 MW = 556” value [2] of the same compound?
Its value is “BRL (BRL means below reporting limit (meaning less than 0.05% of tigecycline peak))”.

What about the “RRT 1.85 MW = 597” value [2] of the same compound?
The value was 0.07%.

And the Strength [2]?
The Strength was 19.23 mg/mL.

What about the Total [2] of the same compound?
Its Total is 0.53%.

And the “RRT 0.12 MW = 633” value [3]?
Its value is “BRL (BRL means below reporting limit (meaning less than 0.05% of tigecycline peak))”.

And the “RRT 0.23 MW = 572” value [3]?
Its value is “BRL (BRL means below reporting limit (meaning less than 0.05% of tigecycline peak))”.

What about the “RRT 0.50 MW = 601” value [3] of the same compound?
Its value is “BRL (BRL means below reporting limit (meaning less than 0.05% of tigecycline peak))”.

What about the “RRT 0.55 MW = 583” value [3] of the same compound?
Its value is “BRL (BRL means below reporting limit (meaning less than 0.05% of tigecycline peak))”.

What about the “RRT 0.58” value [3] of the same compound?
The value was 0.08%.

And the “RRT 0.64 9-Amino” value [3]?
Its value is “BRL (BRL means below reporting limit (meaning less than 0.05% of tigecycline peak))”.

And the “RRT 0.74 Epimer” value [3]?
Its value is 0.17%.

What about the “RRT 0.76” value [3] of the same compound?
Its value is “BRL (BRL means below reporting limit (meaning less than 0.05% of tigecycline peak))”.

What about the “RRT 0.78 MW = 557” value [3] of the same compound?
The value was “BRL (BRL means below reporting limit (meaning less than 0.05% of tigecycline peak))”.

What about the “RRT 1.12” value [3] of the same compound?
Its value is “BRL (BRL means below reporting limit (meaning less than 0.05% of tigecycline peak))”.

What about the “RRT 1.45” value [3] of the same compound?
Its value is 0.07%.

And the “RRT 1.58” value [3]?
The value was “BRL (BRL means below reporting limit (meaning less than 0.05% of tigecycline peak))”.

What about the “RRT 1.64 Mino” value [3] of the same compound?
Its value is 0.15%.

And the “RRT 1.67 MW = 556” value [3]?
The value was “BRL (BRL means below reporting limit (meaning less than 0.05% of tigecycline peak))”.

And the “RRT 1.85 MW = 597” value [3]?
Its value is 0.08%.

And the Strength [3]?
The Strength was 19.053 mg/mL.

And the Total [3]?
The Total was 0.54%.

What about the “RRT 0.12 MW = 633” value [4] of the same compound?
The value was “BRL (BRL means below reporting limit (meaning less than 0.05% of tigecycline peak))”.

What about the “RRT 0.23 MW = 572” value [4] of the same compound?
The value was “BRL (BRL means below reporting limit (meaning less than 0.05% of tigecycline peak))”.

And the “RRT 0.50 MW = 601” value [4]?
Its value is “BRL (BRL means below reporting limit (meaning less than 0.05% of tigecycline peak))”.

And the “RRT 0.55 MW = 583” value [4]?
The value was “BRL (BRL means below reporting limit (meaning less than 0.05% of tigecycline peak))”.

And the “RRT 0.58” value [4]?
Its value is 0.08%.

And the “RRT 0.64 9-Amino” value [4]?
The value was “BRL (BRL means below reporting limit (meaning less than 0.05% of tigecycline peak))”.

What about the “RRT 0.74 Epimer” value [4] of the same compound?
Its value is 0.17%.

What about the “RRT 0.76” value [4] of the same compound?
Its value is 0.05%.

What about the “RRT 0.78 MW = 557” value [4] of the same compound?
The value was “BRL (BRL means below reporting limit (meaning less than 0.05% of tigecycline peak))”.

And the “RRT 1.12” value [4]?
Its value is “BRL (BRL means below reporting limit (meaning less than 0.05% of tigecycline peak))”.

What about the “RRT 1.45” value [4] of the same compound?
Its value is 0.08%.

And the “RRT 1.58” value [4]?
Its value is “BRL (BRL means below reporting limit (meaning less than 0.05% of tigecycline peak))”.

And the “RRT 1.64 Mino” value [4]?
The value was 0.13%.

What about the “RRT 1.67 MW = 556” value [4] of the same compound?
The value was “BRL (BRL means below reporting limit (meaning less than 0.05% of tigecycline peak))”.

What about the “RRT 1.85 MW = 597” value [4] of the same compound?
The value was 0.08%.

What about the Strength [4] of the same compound?
The Strength was 18.988 mg/mL.

And the Total [4]?
The Total was 0.60%.

What about the “RRT 0.12 MW = 633” value [5] of the same compound?
Its value is “BRL (BRL means below reporting limit (meaning less than 0.05% of tigecycline peak))”.

What about the “RRT 0.23 MW = 572” value [5] of the same compound?
Its value is “BRL (BRL means below reporting limit (meaning less than 0.05% of tigecycline peak))”.

What about the “RRT 0.50 MW = 601” value [5] of the same compound?
The value was “BRL (BRL means below reporting limit (meaning less than 0.05% of tigecycline peak))”.

What about the “RRT 0.55 MW = 583” value [5] of the same compound?
Its value is “BRL (BRL means below reporting limit (meaning less than 0.05% of tigecycline peak))”.

What about the “RRT 0.58” value [5] of the same compound?
Its value is 0.07%.

And the “RRT 0.64 9-Amino” value [5]?
Its value is “BRL (BRL means below reporting limit (meaning less than 0.05% of tigecycline peak))”.

And the “RRT 0.74 Epimer” value [5]?
Its value is 0.22%.

And the “RRT 0.76” value [5]?
The value was 0.05%.

And the “RRT 0.78 MW = 557” value [5]?
The value was “BRL (BRL means below reporting limit (meaning less than 0.05% of tigecycline peak))”.

What about the “RRT 1.12” value [5] of the same compound?
The value was “BRL (BRL means below reporting limit (meaning less than 0.05% of tigecycline peak))”.

What about the “RRT 1.45” value [5] of the same compound?
Its value is 0.07%.

What about the “RRT 1.58” value [5] of the same compound?
The value was “BRL (BRL means below reporting limit (meaning less than 0.05% of tigecycline peak))”.

What about the “RRT 1.64 Mino” value [5] of the same compound?
The value was 0.13%.

And the “RRT 1.67 MW = 556” value [5]?
The value was “BRL (BRL means below reporting limit (meaning less than 0.05% of tigecycline peak))”.

What about the “RRT 1.85 MW = 597” value [5] of the same compound?
The value was 0.08%.

What about the Strength [5] of the same compound?
The Strength was 19.424 mg/mL.

And the Total [5]?
The Total was 0.62%.

What about the “RRT 0.12 MW = 633” value [6] of the same compound?
Its value is “BRL (BRL means below reporting limit (meaning less than 0.05% of tigecycline peak))”.

And the “RRT 0.23 MW = 572” value [6]?
Its value is “BRL (BRL means below reporting limit (meaning less than 0.05% of tigecycline peak))”.

And the “RRT 0.50 MW = 601” value [6]?
The value was “BRL (BRL means below reporting limit (meaning less than 0.05% of tigecycline peak))”.

And the “RRT 0.55 MW = 583” value [6]?
The value was “BRL (BRL means below reporting limit (meaning less than 0.05% of tigecycline peak))”.

What about the “RRT 0.58” value [6] of the same compound?
Its value is 0.07%.

And the “RRT 0.64 9-Amino” value [6]?
Its value is “BRL (BRL means below reporting limit (meaning less than 0.05% of tigecycline peak))”.

What about the “RRT 0.74 Epimer” value [6] of the same compound?
The value was 0.23%.

And the “RRT 0.76” value [6]?
The value was “BRL (BRL means below reporting limit (meaning less than 0.05% of tigecycline peak))”.

And the “RRT 0.78 MW = 557” value [6]?
Its value is “BRL (BRL means below reporting limit (meaning less than 0.05% of tigecycline peak))”.

What about the “RRT 1.12” value [6] of the same compound?
The value was “BRL (BRL means below reporting limit (meaning less than 0.05% of tigecycline peak))”.
